Test results as given in ChEMBL document CHEMBL3244239, “Potential antitumor agents. Synthesis, reactivity, and cytoxicity of alpha-methylene carbonyl compounds” (1978).
In brackets after ≈: the same amount, converted by molar mass.

These molecules were tested on KB (assay: Cytotoxicity against human KB cells). Conditions: read-out: ED50 (the source's name).
Assay type: functional

Row | SMILES | EC50 [µg/mL]
1 | O=C1OCC/C1=C\OCCCO/C=C1\CCOC1=O | > 100
2 | C=C1CCOC1=O [TULIPALINE A] | 16 (≈ 163 µM)
3 | C=C1CC(CCCC2CC(=C)C(=O)O2)OC1=O (stereo not drawn) | 4 (≈ 16.9 µM)
4 | O=C1OCC/C1=C\CCC/C=C1\CCOC1=O | > 100
5 | O=C1OCC/C1=C\OC(=O)c1ccccc1 | 100 (≈ 458 µM)
6 | C=C1C(=O)O[C@@H]2CCCC[C@@H]12 (relative stereo) | 38 (≈ 250 µM)
7 | C=C1C(=O)O[C@@H]2[C@@H]3[C@H](C[C@H]12)[C@@H]1C=C[C@@H]3C1 | 1 (≈ 4.94 µM)
8 | C=C(C)C(=O)O[C@H]1CC2=C[C@@H](C[C@@]3(C)O[C@@H]3[C@H]3OC(=O)C(=C)[C@@H]31)OC2=O [ELEPHANTOPIN] | 1 (≈ 2.77 µM)
